Assay results: PubChem BioAssay AID330 (DTP/NCI, 2004)
Values joined by “and” are separate entries in the source; they are usually repeats but may differ in a detail not shown here. Equal entries are not always repeated. Toxic doses and inconclusive results are not listed. How the source made its calls: active means survival T/C of 150% or more; inactive means T/C below 125% in these data.

Test system: P388 leukemia ip, CD2F1 mice, survival T/C
Test: NCI In Vivo Anticancer Drug Screen. Data for tumor model P388 Leukemia (intraperitoneal) in CD2F1 (CDF1) mice
Details: endpoint: median survival time, higher = longer survival
In short: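 Mice carrying the transplanted tumor received test compound or vehicle. Survival was recorded in each group, and the value is the treated-group measurement divided by that of the vehicle-treated control group.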

[1] = dose: 60.0 mg/kg/injection, schedule: Q01DX005 (ip), vehicle: saline with Tween-80
[2] = dose: 120.0 mg/kg/injection, schedule: Q01DX005 (ip), vehicle: saline with Tween-80
[3] = dose: 50.0 mg/kg/injection, schedule: Q01DX009 (ip), vehicle: saline
[4] = dose: 100.0 mg/kg/injection, schedule: Q01DX009 (ip), vehicle: saline
[5] = dose: 200.0 mg/kg/injection, schedule: Q01DX009 (ip), vehicle: saline
[6] = dose: 100.0 mg/kg/injection, schedule: Q01DX009 (ip), vehicle: Klucel (hydroxypropylcellulose) (HPC)
[7] = dose: 200.0 mg/kg/injection, schedule: Q01DX009 (ip), vehicle: Klucel (hydroxypropylcellulose) (HPC)
[8] = dose: 60.0 mg/kg/injection, schedule: Q01DX005 (ip), vehicle: saline
[9] = dose: 120.0 mg/kg/injection, schedule: Q01DX005 (ip), vehicle: saline
[10] = dose: 50.0 mg/kg/injection, schedule: Q01DX005 (ip), vehicle: saline with Tween-80
[11] = dose: 100.0 mg/kg/injection, schedule: Q01DX005 (ip), vehicle: saline with Tween-80
[12] = dose: 200.0 mg/kg/injection, schedule: Q01DX005 (ip), vehicle: saline with Tween-80
[13] = dose: 25.0 mg/kg/injection, schedule: Q01DX009 (ip), vehicle: saline with Tween-80
[14] = dose: 50.0 mg/kg/injection, schedule: Q01DX009 (ip), vehicle: saline with Tween-80
[15] = dose: 100.0 mg/kg/injection, schedule: Q01DX009 (ip), vehicle: saline with Tween-80
[16] = dose: 200.0 mg/kg/injection, schedule: Q01DX009 (ip), vehicle: saline with Tween-80
[17] = dose: 100.0 mg/kg/injection, schedule: Q01DX001 (ip), vehicle: Klucel (hydroxypropylcellulose) (HPC)
[18] = dose: 200.0 mg/kg/injection, schedule: Q01DX001 (ip), vehicle: Klucel (hydroxypropylcellulose) (HPC)
[19] = dose: 400.0 mg/kg/injection, schedule: Q01DX001 (ip), vehicle: Klucel (hydroxypropylcellulose) (HPC)

Measured: T/C

CC/C=C/C(O)C(O)C1=C(C)C(=O)C2(O1)C(=O)NC(OC)(C(=O)c1ccccc1)C2O (configuration not stated)
inactive: dose: 12.5 mg/kg/injection, schedule: Q01DX005 (ip), vehicle: Klucel (hydroxypropylcellulose) (HPC) 99 % of control | dose: 25.0 mg/kg/injection, schedule: Q01DX005 (ip), vehicle: Klucel (hydroxypropylcellulose) (HPC) 99 % of control | dose: 50.0 mg/kg/injection, schedule: Q01DX005 (ip), vehicle: Klucel (hydroxypropylcellulose) (HPC) 94 % of control | dose: 100.0 mg/kg/injection, schedule: Q01DX005 (ip), vehicle: Klucel (hydroxypropylcellulose) (HPC) 96 % of control | dose: 150.0 mg/kg/injection, schedule: Q01DX005 (ip), vehicle: Klucel (hydroxypropylcellulose) (HPC) 103 % of control | dose: 200.0 mg/kg/injection, schedule: Q01DX005 (ip), vehicle: Klucel (hydroxypropylcellulose) (HPC) 106 % of control

CC1=CCC(=O)C=[N+]1Cc1ccccc1
inactive: dose: 6.25 mg/kg/injection, schedule: Q01DX005 (ip), vehicle: saline 114 % of control | dose: 12.5 mg/kg/injection, schedule: Q01DX005 (ip), vehicle: saline 100 % of control

O=C1CCC(c2nc3ccccc3[nH]2)N1Cc1csc(-c2ccccc2)n1 (configuration not stated)
inactive: [1] 98 % of control | [2] 93 % of control | dose: 240.0 mg/kg/injection, schedule: Q01DX005 (ip), vehicle: saline with Tween-80 88 % of control

O=C(O)CCC(=O)NCCOC(=O)CCC(=O)O
inactive: [3] 99 % of control | [4] 104 % of control | [5] 106 % of control

CCCCCCCC(=O)C(=O)c1ccc(O)c(C)c1O
inactive: dose: 50.0 mg/kg/injection, schedule: Q01DX009 (ip), vehicle: Klucel (hydroxypropylcellulose) (HPC) 109 % of control | [6] 102 % of control | [7] 106 % of control

COC1(CO)C(=O)N(C)CC(=O)N1C (configuration not stated)
inactive: [8] 106 % of control | [9] 106 % of control

COc1ccc(Cc2cc3c(cc2OCC(=O)O)OCO3)cc1
inactive: [10] 97 % of control | [11] 100 % of control | [12] 93 % of control

CCc1cccc(CC)c1NC(=O)c1ccc(C)cc1
inactive: [1] 91 % of control | [2] 86 % of control

O=C(COc1ccc(Cl)cc1Cl)NC(O)C(Cl)(Cl)Cl (configuration not stated)
inactive: dose: 100.0 mg/kg/injection, schedule: Q04DX003 (ip), vehicle: saline with Tween-80 108 % of control | dose: 200.0 mg/kg/injection, schedule: Q04DX003 (ip), vehicle: saline with Tween-80 116 % of control | dose: 400.0 mg/kg/injection, schedule: Q04DX003 (ip), vehicle: saline with Tween-80 100 % of control

O=C(O)CSC(SCC(=O)O)c1ccc(F)cc1
inactive: [10] 96 % of control | [11] 96 % of control | [12] 97 % of control

NC(Cc1ccccc1I)c1nn[nH]n1 (configuration not stated)
inactive: [13] 107 % of control | [14] 102 % of control and 105 % of control and 111 % of control | [15] 98 % of control and 100 % of control and 95 % of control | [16] 110 % of control and 97 % of control | dose: 400.0 mg/kg/injection, schedule: Q01DX009 (ip), vehicle: saline with Tween-80 100 % of control and 96 % of control

CCOP(=O)(NCCCOC)OCC
inactive: dose: 25.0 mg/kg/injection, schedule: Q01DX005 (ip), vehicle: saline 97 % of control | dose: 50.0 mg/kg/injection, schedule: Q01DX005 (ip), vehicle: saline 100 % of control | dose: 100.0 mg/kg/injection, schedule: Q01DX005 (ip), vehicle: saline 99 % of control

CCC[CH2][Hg][Cl]
inactive: dose: 3.3 mg/kg/injection, schedule: Q01DX009 (ip), vehicle: other 95 % of control | dose: 5.0 mg/kg/injection, schedule: Q01DX009 (ip), vehicle: other 100 % of control | dose: 7.5 mg/kg/injection, schedule: Q01DX009 (ip), vehicle: other 118 % of control

Cc1ccc(C)c2c1CCC2C (configuration not stated)
inactive: [13] 101 % of control and 110 % of control | [14] 111 % of control and 116 % of control | [15] 104 % of control and 114 % of control

CN1NC(c2ccc(N(C)C)cc2)(c2ccc(N(C)C)cc2)c2ccc(N(C)C)cc2C1=O
inactive: dose: 100.0 mg/kg/injection, schedule: Q04DX002 (ip), vehicle: saline with Tween-80 90 % of control | dose: 200.0 mg/kg/injection, schedule: Q04DX002 (ip), vehicle: saline with Tween-80 88 % of control | dose: 400.0 mg/kg/injection, schedule: Q04DX002 (ip), vehicle: saline with Tween-80 88 % of control

CCOC(=O)/C=C(\C)N1CCCCC1
inactive: dose: 100.0 mg/kg/injection, schedule: Q04DX003 (ip), vehicle: saline 100 % of control | dose: 200.0 mg/kg/injection, schedule: Q04DX003 (ip), vehicle: saline 100 % of control | dose: 400.0 mg/kg/injection, schedule: Q04DX003 (ip), vehicle: saline 100 % of control

COc1ccc(CC(N)c2nn[nH]n2)cc1 (configuration not stated)
inactive: [14] 96 % of control | [15] 98 % of control

CS(=O)(=O)CC1=NC(=N)N=C1CS(C)(=O)=O
inactive: [8] 100 % of control | [9] 110 % of control | dose: 240.0 mg/kg/injection, schedule: Q01DX005 (ip), vehicle: saline 96 % of control

Cc1c2cnccc2c(C)c2c1c1ccccc1n2Cc1ccccc1
inactive: dose: 6.25 mg/kg/injection, schedule: Q04DX003 (ip), vehicle: distilled water + Tween-80 97 % of control | dose: 12.5 mg/kg/injection, schedule: Q04DX003 (ip), vehicle: distilled water + Tween-80 95 % of control | dose: 25.0 mg/kg/injection, schedule: Q04DX003 (ip), vehicle: distilled water + Tween-80 95 % of control | dose: 50.0 mg/kg/injection, schedule: Q04DX003 (ip), vehicle: distilled water + Tween-80 95 % of control | dose: 100.0 mg/kg/injection, schedule: Q04DX003 (ip), vehicle: distilled water + Tween-80 99 % of control | dose: 200.0 mg/kg/injection, schedule: Q04DX003 (ip), vehicle: distilled water + Tween-80 94 % of control

Nc1cc2c(c[n+](Cc3ccccc3)c3ccccc23)c2ccccc12
inactive: dose: 0.2 mg/kg/injection, schedule: Q04DX003 (ip), vehicle: water 105 % of control | dose: 0.39 mg/kg/injection, schedule: Q04DX003 (ip), vehicle: water 102 % of control | dose: 0.78 mg/kg/injection, schedule: Q04DX003 (ip), vehicle: water 102 % of control | dose: 1.56 mg/kg/injection, schedule: Q04DX003 (ip), vehicle: water 105 % of control

O=C(N[C@@H](CO)[C@H]1CC(Br)=NO1)C(Cl)(Cl)Cl
inactive: dose: 12.5 mg/kg/injection, schedule: Q01DX005 (ip), vehicle: distilled water + Tween-80 100 % of control | dose: 25.0 mg/kg/injection, schedule: Q01DX005 (ip), vehicle: distilled water + Tween-80 102 % of control | dose: 50.0 mg/kg/injection, schedule: Q01DX005 (ip), vehicle: distilled water + Tween-80 105 % of control | dose: 100.0 mg/kg/injection, schedule: Q01DX005 (ip), vehicle: distilled water + Tween-80 107 % of control

CC(=O)Oc1cc2c(=O)oc3c(OC(C)=O)c(OC(C)=O)c(OC(C)=O)c4c(=O)oc(c1OC(C)=O)c2c34
inactive: dose: 25.0 mg/kg/injection, schedule: Q01DX009 (ip), vehicle: saline 101 % of control | [3] 86 % of control | [6] 86 % of control | [7] 86 % of control | [5] 88 % of control | dose: 400.0 mg/kg/injection, schedule: Q01DX009 (ip), vehicle: saline 94 % of control

N#CC(C(=O)O)C1(c2ccccc2)CCCCC1 (configuration not stated)
inactive: [14] 101 % of control | [15] 93 % of control | [16] 105 % of control

CC(=O)OCC1OC([Se-])C(OC(C)=O)C(OC(C)=O)C1OC(C)=O.N#CCC[PH+](CCC#N)CCC#N.[Au+] (configuration not stated)
inactive: [1] 98 % of control

O=C(O)CCC1CC(=O)OC1c1ccccc1 (configuration not stated)
inactive: [17] 94 % of control | [18] 94 % of control | [19] 94 % of control

CCCc1cccc2c3c([nH]c12)C(CC)(CC(=O)O)OCC3 (configuration not stated)
inactive: [17] 96 % of control | [18] 96 % of control | [19] 91 % of control

CCCN(CCC)CCCOC(=O)c1ccc2oc3ccc(C(=O)OCCCN(CCC)CCC)cc3c2c1
inactive: [3] 103 % of control | [4] 106 % of control
